Assay results as given in the supplement of paper PMC10307832.

What was measured:
Experiment in all cases: relative viability (nuclei count vs DMSO), 5 days (fraction); higher = more cells survive
[1] = tested on: ABC-1
Procedure, shortened: (§1)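 Lung cancer cell lines were seeded in 1536-well plates and dosed by pin tool the next day, with either a single drug or a fixed anchor-drug dose combined with five library-drug doses (not always all listed) spaced in √10 steps. Five days later, one step fixed the cells and stained their nuclei (final 0.05% Triton X-100, 1% formaldehyde, 1 ug/ml Hoechst), and nuclei were counted on 4× images. Relative viability is the nuclei count in treated wells divided by the count in vehicle wells, and each value is the median of duplicate plates.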

[2] = tested on: BEN
Procedure, shortened: as §1

[3] = tested on: CAL-12T
Procedure, shortened: as §1

[4] = tested on: H3255
Procedure, shortened: as §1

[5] = tested on: HARA
Procedure, shortened: as §1

[6] = tested on: HCC-15
Procedure, shortened: as §1

[7] = tested on: HCC-827
Procedure, shortened: as §1

[8] = tested on: LC-2-ad
Procedure, shortened: as §1

[9] = tested on: LOU-NH91
Procedure, shortened: as §1

[10] = tested on: LU99A
Procedure, shortened: as §1

[11] = tested on: NCI-H1355
Procedure, shortened: as §1

## Cc1cn(-c2cc(NC(=O)c3ccc(C)c(Nc4nccc(-c5cccnc5)n4)c3)cc(C(F)(F)F)c2)cn1 [Nilotinib] + CS(=O)(=O)CCNCc1ccc(-c2ccc3ncnc(Nc4ccc(OCc5cccc(F)c5)c(Cl)c4)c3c2)o1 [Lapatinib] (partner 2 µM)
[1]; first compound 0.001 µM
  relative viability: 0.925
[1]; first compound 0.003162 µM
  relative viability: 1.09
[1]; first compound 0.01 µM
  relative viability: 1.35
[1]; first compound 0.03162 µM
  relative viability: 0.955
[1]; first compound 0.1 µM
  relative viability: 0.952
[2]; first compound 0.001 µM
  relative viability: 0.759
[2]; first compound 0.003162 µM
  relative viability: 0.74
[2]; first compound 0.01 µM
  relative viability: 0.757
[2]; first compound 0.03162 µM
  relative viability: 0.518
[2]; first compound 0.1 µM
  relative viability: 0.508
[3]; first compound 0.001 µM
  relative viability: 0.729
[3]; first compound 0.01 µM
  relative viability: 0.748
[3]; first compound 0.03162 µM
  relative viability: 0.839
[3]; first compound 0.1 µM
  relative viability: 0.74
[4]; first compound 0.001 µM
  relative viability: 0.259
[4]; first compound 0.003162 µM
  relative viability: 0.224
[4]; first compound 0.01 µM
  relative viability: 0.236
[4]; first compound 0.03162 µM
  relative viability: 0.24
[4]; first compound 0.1 µM
  relative viability: 0.217
[5]; first compound 0.001 µM
  relative viability: 0.685
[5]; first compound 0.003162 µM
  relative viability: 0.777
[5]; first compound 0.01 µM
  relative viability: 0.686
[5]; first compound 0.03162 µM
  relative viability: 0.8
[5]; first compound 0.1 µM
  relative viability: 0.454
[6]; first compound 0.001 µM
  relative viability: 0.835
[6]; first compound 0.003162 µM
  relative viability: 1.07
[6]; first compound 0.01 µM
  relative viability: 1.05
[6]; first compound 0.03162 µM
  relative viability: 0.663
[6]; first compound 0.1 µM
  relative viability: 0.443
[7]; first compound 0.001 µM
  relative viability: 0.233
[7]; first compound 0.003162 µM
  relative viability: 0.184
[7]; first compound 0.01 µM
  relative viability: 0.154
[7]; first compound 0.1 µM
  relative viability: 0.184
[8]; first compound 0.001 µM
  relative viability: 0.901
[8]; first compound 0.003162 µM
  relative viability: 1.29
[8]; first compound 0.01 µM
  relative viability: 1.05
[8]; first compound 0.03162 µM
  relative viability: 0.894
[8]; first compound 0.1 µM
  relative viability: 0.293
[9]; first compound 0.001 µM
  relative viability: 0.76
[9]; first compound 0.003162 µM
  relative viability: 0.679
[9]; first compound 0.01 µM
  relative viability: 0.649
[9]; first compound 0.03162 µM
  relative viability: 0.761
[9]; first compound 0.1 µM
  relative viability: 0.747
[10]; first compound 0.001 µM
  relative viability: 0.954
[10]; first compound 0.003162 µM
  relative viability: 0.924
[10]; first compound 0.01 µM
  relative viability: 0.921
[10]; first compound 0.03162 µM
  relative viability: 0.775
[10]; first compound 0.1 µM
  relative viability: 0.153
[11]; first compound 0.001 µM
  relative viability: 1.07
[11]; first compound 0.003162 µM
  relative viability: 1.32
[11]; first compound 0.01 µM
  relative viability: 1.2
[11]; first compound 0.03162 µM
  relative viability: 1.12
[11]; first compound 0.1 µM
  relative viability: 0.401
